Test results published in article PMC9095466 (Nature, 2022).
Several values for one entry are separate records, joined by “and”; a condition that tells them apart may be missing. Equal entries are not always repeated. Where two headings read alike, the source gives them in different places.

What was measured:
[1] = system: SARS-CoV-2 B.1.617.2 (Delta); assay: microbe, parasite or virus in culture; type: cell-based; conditions: India
[2] = system: SARS-CoV-2 B.1.351 (Beta); assay: microbe, parasite or virus in culture; type: cell-based; conditions: SA
[3] = system: SARS-CoV-2 B.1.617.2 (Delta); assay: K18-hACE2 mice infected with Delta VOC, lung pathology scores on IHC sections; conditions: individual mice, single dose 12 hpi, 3 DPI
Experimental: For histological examination, mouse lungs and brains were collected directly after euthanasia and placed in 10% formalin for more than 72 h, after which tissues were embedded in paraffin. Tissue sections (4 μm) were analysed after staining with H&E and scored blinded by an anatomic pathologist. For lung, scores were applied based on the percentage of each tissue type (alveolus, vessels and so on) affected using the following criteria: (0) normal; (1) less than 10% affected; (2) 10–25% affected; (3) 26–50% affected; and (4) more than 50% affected[64]. Assessment of lung pathology in K18-hACE2 mice infected with the SARS-CoV-2 B.1.617.2 (Delta) VOC after single-dose treatment was performed on IHC sections counterstained with haematoxylin. For brains, histological scoring was assessed for perivascular inflammation using the most severely affected vessel and the following criteria: (0) no perivascular inflammation; (1) incomplete cuff one cell layer thick; (2) complete cuff one cell layer thick; (3) complete cuff two to three cells thick; and (4) complete cuff four or more cells thick. Necrotic cells in the neuroparenchyma were assessed per 0.237 mm^2 field using the most severely affected area and the following criteria: (0) no necrotic cells; (1) rare individual necrotic cells; (2) fewer than 10 necrotic cells; (3) 11 to 25 necrotic cells; (4) 26 to 50 necrotic cells; and (5) greater than 50 cells.

[4] = system: SARS-CoV-2 B.1.617.2 (Delta); assay: K18-hACE2 mice infected with Delta VOC, IHC of nucleocapsid in lung; type: in vivo
Experimental: (§1) To detect viral antigen, sections were labelled with anti-SARS-CoV-2 nucleocapsid protein rabbit IgG monoclonal antibody (GeneTex; GTX635679) at a 1:5,000 dilution and processed using a Leica Bond Max automated IHC stainer. Leica Bond Polymer Refine Detection (Leica; DS9800) with DAB was used as the chromogen. Image acquisition was performed using a Roche Ventana DP200 slide scanner. Digital image analysis was performed using QuPath software[65],[66] v.0.2.3. Tissues were annotated to include all available lung tissue or all brain tissue excluding cerebellum, as cerebellar tissue was not available for all mice. Following annotation, automated detection was performed using automated SLIC superpixel segmentation with a DAB mean detection threshold of 0.18892.

[5] = system: SARS-CoV-2 (USA-WA1/2020, lineage A); assay: K18-hACE2 mouse model of SARS-CoV-2, IHC of nucleocapsid with digital image analysis; type: in vivo, K18-hACE2 mice; conditions: for Num Positive per mm^2 (IHC) / Positive % (IHC): Lung, Figure 5 Panel G, individual animals
Experimental: as §1

[6] = system: SARS-CoV-2 (VIDO); assay: microbe, parasite or virus in culture; type: cell-based; conditions: colonoids pretreated 3 h with 100 nM, infected 3 days, vs DMSO-treated
[7] = Cytotoxicity assay (Cell Titer-Glo 2.0) in Vero E6 cells; type: cell-based; conditions: African green monkey
Experimental: Calu-3 and Vero E6 cells (2500 or 10,000 cells for samples, 80–20,000 cells for standard curve) were seeded in 96-well plates. Following a 24-h incubation at 37 °C, 5% CO2, cells were washed with D-PBS and compounds added (10 µM) for an additional 24-h incubation. Cellular viability was assessed using Cell Titer-Glo 2.0 Cell Viability Assay (Promega) according to the manufacturer’s instructions. The number of viable cells was extrapolated using the standard curve. Cellular viability in Vero E6 cells was expressed relative (%) to vehicle-treated cells. Data are from four independent experiments (mean ± s.d.).

[8] = system: SARS-CoV-2 VOCs; assay: SARS-CoV-2 VOC infection of Calu-3 cells, summary over all VOCs; type: cell-based; conditions: Severe acute respiratory syndrome coronavirus 2, range over VOCs
[9] = individual mice, 8-day regimen, tissue at death or end-point

CS(=O)(=O)NC(CCC(N)=O)C(=O)NC(Cc1ccccc1)C(=O)NC(CCCNC(=N)N)C(=O)c1nc2ccccc2s1 (stereo not shown) [Compound N-0385, Ms-QFR-kbt]
infection, dose response Figure 3d (dsRNA) ([1]; log [C] (nM) 0.20412): 68.4547 and 86.2131 and 100
infection, dose response Figure 3d (dsRNA) ([1]; log [C] (nM) 3): 5.293 and 4.1962
infection, dose response Figure 3c (nucleocapsid) ([1]; log [C] (nM) -0.49485): 94.4352 and 99.5627 and 82.7139
infection, dose response Figure 3d (dsRNA) ([1]; log [C] (nM) -0.49485): 78.2794 and 100
infection, dose response Figure 3c (nucleocapsid) ([1]; log [C] (nM) -1.19382): 98.0243 and 101.283 and 99.1734 and 90.3686
infection, dose response Figure 3d (dsRNA) ([1]; log [C] (nM) -1.19382): 100 and 84.9713
infection, dose response Figure 3c (nucleocapsid) ([2]; log [C] (nM) 0.20412): 79.6793 and 91.7767 and 88.3707 and 72.9139 and 58.6745
infection, dose response Figure 3d (dsRNA) ([2]; log [C] (nM) 0.20412): 63.8002 and 67.3054 and 60.7262 and 87.9301 and 97.1304
infection, dose response Figure 3c (nucleocapsid) ([2]; log [C] (nM) 0.90309): 43.2222 and 77.2087 and 78.2089 and 72.2128 and 63.0729
infection, dose response Figure 3d (dsRNA) ([2]; log [C] (nM) 0.90309): 54.6567 and 62.1742 and 66.7756 and 99.2713 and 89.1898
infection, dose response Figure 3c (nucleocapsid) ([2]; log [C] (nM) 1.60206): 26.0524 and 35.9809 and 32.5888 and 37.5917 and 24.568
infection, dose response Figure 3d (dsRNA) ([2]; log [C] (nM) 1.60206): 39.7311 and 51.7136 and 44.1381 and 59.5864 and 41.1574
infection, dose response Figure 3c (nucleocapsid) ([2]; log [C] (nM) -0.49485): 80.9236 and 100 and 89.9432 and 52.6441
infection, dose response Figure 3d (dsRNA) ([2]; log [C] (nM) -0.49485): 76.5319 and 75.7767 and 69.4582 and 92.7897 and 93.6397
infection, dose response Figure 3c (nucleocapsid) ([2]; log [C] (nM) -1.19382): 96.6594 and 91.8391 and 98.1873 and 70.3455
infection, dose response Figure 3d (dsRNA) ([2]; log [C] (nM) -1.19382): 75.3943 and 74.8717 and 100 and 96.2799
Alveolar cells score ([3]; IHC sections): 0 and 1 ((1) <10% affected)
Interstitial infiltrates in lung score ([3]; IHC sections): 1 ((1) <10% affected) and 2 ((2) 10–25% affected)
Perivascular infiltrate in lung score ([3]; IHC sections): 1 ((1) <10% affected) and 2 ((2) 10–25% affected) and 0 and 3 ((3) 26–50% affected)
Type II pneumocyte hyperplasia score ([3]; IHC sections): 0 and 2 ((2) 10–25% affected) and 1 ((1) <10% affected)
Total Score (lung pathology) ([3]; sum of scores): 2 and 6 and 3 and 1 and 7
Num Positive events/mm^2 (nucleocapsid IHC, lung) ([4]; individual mice (f = female, m = male), single dose 12 hpi, 3 dpi, Fig. 6f, listed as n385): 2181.1 events/mm^2 and 5.047 events/mm^2 and 10.41 events/mm^2 and 9.171 events/mm^2 and 935.88 events/mm^2 and 0.9105 events/mm^2 and 3.523 events/mm^2 and 51.75 events/mm^2 and 3.842 events/mm^2 and 20.48 events/mm^2
reduction in IHC viral staining in lung at 3 dpi ([4]; single dose at 12 hpi, vs saline-treated group): more than 50%
Num Positive per mm^2 (IHC) ([5]; Females): 5.547 per mm^2 and 9.942 per mm^2 and 13.6 per mm^2 and 13.27 per mm^2 and 7.069 per mm^2
Positive % (IHC) ([5]; Females): 0.0549% and 0.0981% and 0.1335% and 0.1309% and 0.07%
Num Positive per mm^2 (IHC) ([5]; Males): 19.22 per mm^2 and 9.103 per mm^2 and 13.04 per mm^2 and 20.75 per mm^2 and 10.41 per mm^2
Positive % (IHC) ([5]; Males): 0.1899% and 0.0899% and 0.1288% and 0.204% and 0.1028%
Brain No. Positive (IHC detections) [5, 9]: 113 and 131 and 205 and 255 and 133 and 201 and 429346 and 137295 and 271623 and 125
Brain No. Positive per mm^2 [5, 9]: 2.79 per mm^2 and 3.006 per mm^2 and 3.517 per mm^2 and 4.198 per mm^2 and 3.156 per mm^2 and 4.077 per mm^2 and 7967.3 per mm^2 and 2771 per mm^2 and 5985.4 per mm^2 and 3.495 per mm^2
Brain Positive % [5, 9]: 0.0277% and 0.0298% and 0.035% and 0.0417% and 0.0314% and 0.0404% and 79.52% and 27.59% and 59.16% and 0.0347%
Lung No. Positive (IHC detections) [5, 9]: 192 and 131 and 152 and 95 and 269 and 3067 and 1648 and 28511 and 272
Lung No. Positive per mm^2 [5, 9]: 6.545 per mm^2 and 5.06 per mm^2 and 8.682 per mm^2 and 7.096 per mm^2 and 3.624 per mm^2 and 7.345 per mm^2 and 133.68 per mm^2 and 86.7 per mm^2 and 861.5 per mm^2 and 8.911 per mm^2
Lung Positive % [5, 9]: 0.065% and 0.0502% and 0.0856% and 0.0701% and 0.0366% and 0.0726% and 1.322% and 0.8535% and 8.502% and 0.088%
reduction of IHC staining (nucleocapsid) in lung at 3 dpi ([5]; intranasal once daily day −1 to day 2, vs saline-treated mice): 98%
inhibition at 0.1 µM ([6]; Severe acute respiratory syndrome coronavirus 2, read-out: inhibition of SARS-CoV-2 infection in colonoids): > 99%
inhibition of SARS-CoV-2 infection in colonoids [6]: complete inhibition
viability at 24 h, 10 µM ([7]; 10 μM compound, 24 h, relative to vehicle (DMSO 0.01%), single experiments N1-N4, read-out: % Viability of Vero E6 cells): 127%
viability at 24 h, 10 µM ([7]; % Viability of Vero E6 cells): 100%
EC50 ([8]; read-out: EC50 against all VOCs, dsRNA staining): 2.6 to 26.5 nM
EC50 ([8]; read-out: EC50 against all VOCs, nucleocapsid staining): 2.1 to 13.9 nM
